Experiment: xn = mol fraction of the nth substance listed

O=C1CCCCC1 + CCCCCCCCCC
viscosity [mPa·s], 101.33 kPa
Conditions	x1 = 0.1023	x1 = 0.2073	x1 = 0.3011	x1 = 0.4017	x1 = 0.5042	x1 = 0.6034	x1 = 0.703	x1 = 0.8	x1 = 0.9018
298.15 K	0.87	0.902	0.937	0.991	1.063	1.143	1.256	1.439	1.625
303.15 K	0.806	0.836	0.868	0.916	0.984	1.053	1.152	1.316	1.48
308.15 K	0.752	0.779	0.812	0.851	0.909	0.973	1.064	1.212	1.357

CC(=O)CC(C)C + CCCCO
101 kPa
Conditions	viscosity [mPa·s]
303.15 K, x2 = 0.1311	0.542
303.15 K, x2 = 0.2531	0.592
303.15 K, x2 = 0.367	0.653
303.15 K, x2 = 0.4745	0.748
303.15 K, x2 = 0.5795	0.862
303.15 K, x2 = 0.6729	0.997
303.15 K, x2 = 0.7627	1.185
303.15 K, x2 = 0.8465	1.42
303.15 K, x2 = 0.9254	1.728
313.15 K, x2 = 0.1311	0.482
313.15 K, x2 = 0.2533	0.526
313.15 K, x2 = 0.3677	0.578
313.15 K, x2 = 0.4745	0.647
313.15 K, x2 = 0.5754	0.733
313.15 K, x2 = 0.6704	0.844
313.15 K, x2 = 0.7604	0.98
313.15 K, x2 = 0.9236	1.43
323.15 K, x2 = 0.1319	0.428
323.15 K, x2 = 0.2542	0.464
323.15 K, x2 = 0.3688	0.507
323.15 K, x2 = 0.4759	0.565
323.15 K, x2 = 0.5759	0.621
323.15 K, x2 = 0.6721	0.707
323.15 K, x2 = 0.7597	0.801
323.15 K, x2 = 0.8452	0.937
323.15 K, x2 = 0.9386	1.136

CC(=O)CC(C)C + CCCCN(CCCC)CCCC
viscosity [mPa·s], 101 kPa
Conditions	298.15 K	303.15 K	308.15 K
x2 = 0.0501	0.564	0.53	0.499
x2 = 0.1	0.593	0.556	0.524
x2 = 0.1499	0.622	0.582	0.549
x2 = 0.2004	0.653	0.609	0.576
x2 = 0.25	0.685	0.638	0.601
x2 = 0.3017	0.719	0.668	0.628
x2 = 0.4004	0.786	0.727	0.681
x2 = 0.4999	0.856	0.788	0.737
x2 = 0.6004	0.928	0.855	0.796
x2 = 0.6962	1.002	0.922	0.855
x2 = 0.8004	1.087	0.998	0.922
x2 = 0.8496	1.129	1.033	0.954
x2 = 0.8997	1.171	1.07	0.988
x2 = 0.9499	1.22	1.114	1.023

CCCCCCO + C1CCCCC1
Conditions	viscosity [mPa·s]
293.15 K, 100 kPa, x2 = 0.0817	4.68
293.15 K, 100 kPa, x2 = 0.1603	4.1
293.15 K, 100 kPa, x2 = 0.2421	3.55
293.15 K, 100 kPa, x2 = 0.3502	2.91
293.15 K, 100 kPa, x2 = 0.4409	2.45
293.15 K, 100 kPa, x2 = 0.5593	1.94
293.15 K, 100 kPa, x2 = 0.6517	1.64
293.15 K, 100 kPa, x2 = 0.7396	1.4
293.15 K, 100 kPa, x2 = 0.8512	1.18
293.15 K, 100 kPa, x2 = 0.9402	1.05
303 K, 101.33 kPa, x1 = 0.1	0.8842
303 K, 101.33 kPa, x1 = 0.2008	1.003
303 K, 101.33 kPa, x1 = 0.2997	1.155
303 K, 101.33 kPa, x1 = 0.4002	1.329
303 K, 101.33 kPa, x1 = 0.4994	1.58
303 K, 101.33 kPa, x1 = 0.6004	1.919
303 K, 101.33 kPa, x1 = 0.6986	2.266
303 K, 101.33 kPa, x1 = 0.8004	2.705
303 K, 101.33 kPa, x1 = 0.8991	3.173
303.15 K, 100 kPa, x2 = 0.0817	3.47
303.15 K, 100 kPa, x2 = 0.1603	3.06
303.15 K, 100 kPa, x2 = 0.2421	2.68
303.15 K, 100 kPa, x2 = 0.3502	2.23
303.15 K, 100 kPa, x2 = 0.4409	1.91
303.15 K, 100 kPa, x2 = 0.5593	1.56
303.15 K, 100 kPa, x2 = 0.6517	1.34
303.15 K, 100 kPa, x2 = 0.7396	1.14
303.15 K, 100 kPa, x2 = 0.8512	0.96
303.15 K, 100 kPa, x2 = 0.9402	0.86
303.15 K, 101 kPa, x1 = 0.6491	1.907
303.15 K, 101.33 kPa, x1 = 0.1085	0.9365
303.15 K, 101.33 kPa, x1 = 0.2023	1.058
303.15 K, 101.33 kPa, x1 = 0.3065	1.225
303.15 K, 101.33 kPa, x1 = 0.3939	1.392
303.15 K, 101.33 kPa, x1 = 0.5019	1.641
303.15 K, 101.33 kPa, x1 = 0.6052	1.93
303.15 K, 101.33 kPa, x1 = 0.701	2.255
303.15 K, 101.33 kPa, x1 = 0.7991	2.649
303.15 K, 101.33 kPa, x1 = 0.8894	3.088
308.15 K, 101 kPa, x1 = 0.6491	1.701
313 K, 101.33 kPa, x1 = 0.1	0.7554
313 K, 101.33 kPa, x1 = 0.2008	0.8505
313 K, 101.33 kPa, x1 = 0.2997	0.9723
313 K, 101.33 kPa, x1 = 0.4002	1.115
313 K, 101.33 kPa, x1 = 0.4994	1.302
313 K, 101.33 kPa, x1 = 0.6004	1.526
313 K, 101.33 kPa, x1 = 0.6986	1.781
313 K, 101.33 kPa, x1 = 0.8004	2.083
313 K, 101.33 kPa, x1 = 0.8991	2.417
313.15 K, 100 kPa, x2 = 0.0817	2.61
313.15 K, 100 kPa, x2 = 0.1603	2.33
313.15 K, 100 kPa, x2 = 0.2421	2.04
313.15 K, 100 kPa, x2 = 0.3502	1.72
313.15 K, 100 kPa, x2 = 0.4409	1.49
313.15 K, 100 kPa, x2 = 0.5593	1.24
313.15 K, 100 kPa, x2 = 0.6517	1.08
313.15 K, 100 kPa, x2 = 0.7396	0.93
313.15 K, 100 kPa, x2 = 0.8512	0.79
313.15 K, 100 kPa, x2 = 0.9402	0.72
313.15 K, 101 kPa, x1 = 0.6491	1.63
323 K, 101.33 kPa, x1 = 0.1	0.65
323 K, 101.33 kPa, x1 = 0.2008	0.7271
323 K, 101.33 kPa, x1 = 0.2997	0.8205
323 K, 101.33 kPa, x1 = 0.4002	0.9237
323 K, 101.33 kPa, x1 = 0.4994	1.061
323 K, 101.33 kPa, x1 = 0.6004	1.239
323 K, 101.33 kPa, x1 = 0.6986	1.433
323 K, 101.33 kPa, x1 = 0.8004	1.658
323 K, 101.33 kPa, x1 = 0.8991	1.896
323.15 K, 100 kPa, x2 = 0.0817	2.02
323.15 K, 100 kPa, x2 = 0.1603	1.8
323.15 K, 100 kPa, x2 = 0.2421	1.6
323.15 K, 100 kPa, x2 = 0.3502	1.36
323.15 K, 100 kPa, x2 = 0.4409	1.19
323.15 K, 100 kPa, x2 = 0.5593	1
323.15 K, 100 kPa, x2 = 0.6517	0.87
323.15 K, 100 kPa, x2 = 0.7396	0.77
323.15 K, 100 kPa, x2 = 0.8512	0.67
323.15 K, 100 kPa, x2 = 0.9402	0.61

From the CheMixHub viscosity set
